Test results as given in BindingDB's records for patent US12310975 (Arvinas Operations, 2025).

Target: B-cell lymphoma 6 protein (Homo sapiens, UniProt P41182)
Experiment: BCL6 TR-FRET Protocol
Protocol: Assay buffer A: 50 mM HEPES pH 7.5, 125 mM NaCl, 0.01% TritonX.Assay buffer B (made fresh): buffer A+1 mM Glutathione (or 0.5 mM DTT).Assay buffer C (made fresh): buffer B+0.03% BSA.Black Proxy plates, 96 well.15 μl final reaction volumes (BCoR-Cy5 100 nM, SA-Eu 2 nM, BCL6-avitag 2 nM).134 μM BCL6-Avitag-Biotin stock: made fresh by adding 2 μl of BCL6-Avitag-Biotin to 31.5 ml Buffer C.1 mM BCoR-Cy5 peptide (LifeTein) stock in Dimethylformamide (DMF).300 nM BCoR-Cy5 working stock: made fresh by adding 4.5 μl of the 1 mM BCoR-Cy5 peptide stock to 15 ml Buffer B.10 μM Eu-Streptavidin (Lance Eu-W1024 Streptavidin, PerkinElmer) stock solution.6 nM Eu-Streptavidin working stock: made fresh by adding 9 μl Eu-Streptavidin stock solution to 15 ml Buffer A.Compounds were diluted to 10 mM. Twenty microliters of DMSO was aliquoted to each well of the microtiter plates. From the 10 mM compound stock, 8.7 ul was aliquoted to the 20 ul DMSO and 3-fold serial dilutions (12 pt […] tritration plate, 96 well, 100% DMSO) performed. Five ul from the titration plate wells was aliquoted to 45 ul Buff C (Intermediate dilution plates, 10% DMSO).Spot 1.5 μl compound titrations to 384-well plates in duplicate, and spot 3.5 μl [8.5 nM] BCL6-bio protein to each well. The plate was mix briefly, centrifuged, and incubated for 30 minutes at room temperature.Mix 14 mls of BCoR-Cy5 [300 nM] and 14 mls [6 nM] Eu-Streptavidin. Spot 10 μl BCoR-Cy5/SA-Eu (1:1) mix to each well. The plates were incubated for 2 hours and then read on an Envision plate reader.

SMILES | IC50 [nM]
CNC(=O)COc1cc2cc(Nc3nc(N4CCC(CN5CCCN(c6cccc(N7CCC(=O)NC7=O)c6)CC5)CC4)ncc3Cl)ccc2n(C(C)C)c1=O [US12310975, Example 498] | > 100
CNC(=O)COc1cc2cc(Nc3nc(N4CCC(OC5CC6(CCN(c7cccc(C(=O)NC8CCC(=O)NC8=O)c7F)CC6)C5)CC4)ncc3Cl)ccc2n(C(C)C)c1=O (configuration not stated) [US12310975, Example 433] | > 100
CNC(=O)COc1cc2cc(Nc3nc(N4CCC(OC5CC6(CCN(c7cccc(C(=O)NC8CCC(=O)NC8=O)c7OC)CC6)C5)CC4)ncc3Cl)ccc2n(C(C)C)c1=O (configuration not stated) [US12310975, Example 449] | > 100
Cn1c(=O)c(OC2COC2)cc2cc(Nc3nc(N4CCC(CN5CCN(c6ccc7c(c6)C(=O)N(C6CCC(=O)NC6=O)C7=O)CC5)CC4)ncc3Cl)ccc21 (configuration not stated) [US12310975, Example 223] | > 100
CNC(=O)COc1cc2cc(Nc3cc(N4CCN(C(C)(C)C5CCN(c6ccc7c(c6)C(=O)N(C6CCC(=O)NC6=O)C7=O)CC5)CC4)ncc3Cl)ccc2n(C)c1=O (configuration not stated) [US12310975, Example 261] | > 100
CNC(=O)COc1cc2cc(Nc3nc(N4CC5(CCN(CC6CCN(c7cccc8c7C(=O)N(C7CCC(=O)NC7=O)C8=O)CC6)CC5)C4)ncc3Cl)ccc2n(C(C)C)c1=O (configuration not stated) [US12310975, Example 426] | < 10

Results, then the molecule that gave them:

IC50 [nM] | SMILES
< 10 | CNC(=O)COc1cc2cc(Nc3nc(N4CCN(C(C)(C)C5CCN(c6ccc(OC)c(C(=O)NC7CCC(=O)NC7=O)c6F)CC5)CC4)ncc3Cl)ccc2n(C)c1=O (configuration not stated) [US12310975, Example 468]
< 10 | CNC(=O)COc1cc2cc(Nc3nc(N4CCN(CC5CCN(c6cc(OC)cc7c6C(=O)N(C6CCC(=O)NC6=O)C7=O)CC5)CC4)ncc3Cl)ccc2n(C(C)C)c1=O (configuration not stated) [US12310975, Example 414]
< 10 | CNC(=O)COc1cc2cc(Nc3cc(N4CCN(CC5CCN(c6ccc7c(c6)C(=O)N(C6CCC(=O)NC6=O)C7=O)CC5)CC4)ncc3Cl)ccc2n(C)c1=O (configuration not stated) [US12310975, Example 253]
< 10 | CCC(C1CCN(c2ccc3c(c2)C(=O)N(C2CCC(=O)NC2=O)C3=O)CC1)N1CCN(c2ncc(Cl)c(Nc3ccc4c(c3)cc(OCC(=O)NC)c(=O)n4C)n2)CC1 (configuration not stated) [US12310975, Example 337]
< 10 | CNC(=O)COc1cc2cc(Nc3nc(N4CCC(CN5CCC6(CC5)CN(c5cccc(C(=O)NC7CCC(=O)NC7=O)c5F)C6)CC4)ncc3Cl)ccc2n(C(C)C)c1=O (configuration not stated) [US12310975, Example 419]
< 10 | CNC(=O)COc1cc2cc(Nc3nc(N4CCC(C5(N6CCC(c7ccc8c(c7)C(=O)N(C7CCC(=O)NC7=O)C8=O)CC6)CC5)CC4)ncc3Cl)ccc2n(C)c1=O (configuration not stated) [US12310975, Example 482]
